Active and inactive are the calls of the source.
How the values were obtained:
[1] = target: T1, Replicative DNA helicase DnaB (Mycobacterium tuberculosis, UniProt P9WMR3); experiment: DnaB intein splicing inhibitors, dose response, biochemical, cell-free fluorescence (AID 449749); format: functional
T1 sequence (P9WMR3 whole entry): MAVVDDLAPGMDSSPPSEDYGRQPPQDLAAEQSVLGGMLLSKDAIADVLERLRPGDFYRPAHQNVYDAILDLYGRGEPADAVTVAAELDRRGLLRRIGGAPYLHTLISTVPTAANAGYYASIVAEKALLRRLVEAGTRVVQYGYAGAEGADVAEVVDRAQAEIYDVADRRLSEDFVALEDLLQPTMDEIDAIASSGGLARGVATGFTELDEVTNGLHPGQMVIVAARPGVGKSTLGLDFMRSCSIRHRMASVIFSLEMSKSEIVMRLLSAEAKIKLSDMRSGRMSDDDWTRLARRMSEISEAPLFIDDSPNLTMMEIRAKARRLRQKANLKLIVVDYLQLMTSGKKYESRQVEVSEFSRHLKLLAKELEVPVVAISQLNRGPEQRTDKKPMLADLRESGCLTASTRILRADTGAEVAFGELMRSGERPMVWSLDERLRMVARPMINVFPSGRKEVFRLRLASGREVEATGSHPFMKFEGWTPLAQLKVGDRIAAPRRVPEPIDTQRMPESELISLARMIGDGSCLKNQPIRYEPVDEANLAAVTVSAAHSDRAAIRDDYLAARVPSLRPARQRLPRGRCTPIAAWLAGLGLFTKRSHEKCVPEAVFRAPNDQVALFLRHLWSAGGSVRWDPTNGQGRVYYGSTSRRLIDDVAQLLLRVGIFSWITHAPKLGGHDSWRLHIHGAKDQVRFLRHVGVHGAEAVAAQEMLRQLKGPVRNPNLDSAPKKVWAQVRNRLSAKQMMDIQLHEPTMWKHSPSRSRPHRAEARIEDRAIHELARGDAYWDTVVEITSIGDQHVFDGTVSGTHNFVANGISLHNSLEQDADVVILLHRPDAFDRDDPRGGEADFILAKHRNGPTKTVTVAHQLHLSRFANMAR

Protein RecA = target: T2, Protein RecA (Mycobacterium tuberculosis, UniProt P9WHJ3); experiment: Fluorescence Cell-Free Homogeneous Dose Retest to Identify Inhibitors of RecA-Intein Splicing Activity. [Related pubchem assays (depositor defined):AID2097, AID2223, AID489010, AID492950]; format: functional
T2 sequence (P9WHJ3 whole entry): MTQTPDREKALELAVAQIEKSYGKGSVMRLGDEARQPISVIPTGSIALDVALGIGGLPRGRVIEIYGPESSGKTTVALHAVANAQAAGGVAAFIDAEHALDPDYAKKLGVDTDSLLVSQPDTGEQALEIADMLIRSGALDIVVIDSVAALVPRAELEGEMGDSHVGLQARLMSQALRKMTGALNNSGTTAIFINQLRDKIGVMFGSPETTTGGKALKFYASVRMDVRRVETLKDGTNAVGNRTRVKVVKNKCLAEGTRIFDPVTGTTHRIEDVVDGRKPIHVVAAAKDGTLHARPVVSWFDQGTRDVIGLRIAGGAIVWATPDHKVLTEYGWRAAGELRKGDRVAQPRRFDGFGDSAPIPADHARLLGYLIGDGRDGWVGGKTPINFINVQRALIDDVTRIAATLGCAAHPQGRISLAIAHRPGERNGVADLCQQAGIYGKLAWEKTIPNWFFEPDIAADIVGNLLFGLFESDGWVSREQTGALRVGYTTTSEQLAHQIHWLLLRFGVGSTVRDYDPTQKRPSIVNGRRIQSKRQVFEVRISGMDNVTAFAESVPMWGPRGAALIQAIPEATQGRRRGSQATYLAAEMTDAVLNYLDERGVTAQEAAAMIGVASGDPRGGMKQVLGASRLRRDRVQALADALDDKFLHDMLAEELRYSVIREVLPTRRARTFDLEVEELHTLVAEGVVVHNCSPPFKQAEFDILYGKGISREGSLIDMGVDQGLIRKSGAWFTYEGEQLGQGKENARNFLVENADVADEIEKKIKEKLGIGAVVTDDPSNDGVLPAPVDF

[2] = target: T3, DNA repair protein RAD52 homolog (Homo sapiens, UniProt P43351); format: functional, biochemical
T3 sequence (P43351 whole entry): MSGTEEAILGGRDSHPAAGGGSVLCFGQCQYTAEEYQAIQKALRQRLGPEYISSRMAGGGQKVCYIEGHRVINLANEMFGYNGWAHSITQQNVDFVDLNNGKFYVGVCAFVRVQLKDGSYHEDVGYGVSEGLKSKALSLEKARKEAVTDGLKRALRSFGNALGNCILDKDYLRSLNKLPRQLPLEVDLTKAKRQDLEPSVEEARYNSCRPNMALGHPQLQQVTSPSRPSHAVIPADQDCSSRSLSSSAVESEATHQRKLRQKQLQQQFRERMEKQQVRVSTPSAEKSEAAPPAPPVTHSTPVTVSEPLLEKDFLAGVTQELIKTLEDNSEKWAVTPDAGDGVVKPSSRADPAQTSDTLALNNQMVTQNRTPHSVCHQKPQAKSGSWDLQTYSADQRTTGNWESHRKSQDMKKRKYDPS

[3] = target: T4, Ubiquitin-conjugating enzyme E2 N (Homo sapiens, UniProt P61088); format: functional;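 further: Dose-response confirmation in a TR-FRET assay detecting UBC13-driven polyubiquitin chain formation, inhibition measured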
T4 sequence (P61088 whole entry): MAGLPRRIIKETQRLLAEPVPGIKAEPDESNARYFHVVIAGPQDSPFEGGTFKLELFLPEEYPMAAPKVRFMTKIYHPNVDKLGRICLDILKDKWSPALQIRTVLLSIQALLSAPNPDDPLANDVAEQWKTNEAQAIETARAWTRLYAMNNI

Cryptococcus neoformans = experiment: Cryptococcus growth inhibition by alamar blue – cell lysis, cherry-picks, replicate tests, mechanism study for C. neoformans antifungal project, dose response (AID 686999); format: functional, organism-based
HeLa = experiment: HeLa cell cytotoxicity, dose response, cytotoxicity control, ATP luminescence, cherry-pick samples (AID 687004); format: functional, cell-based; details: Homo sapiens

CC(C)[n+]1ccn(C2=C([N-]S(=O)(=O)c3ccccc3)C(=O)c3ccccc3C2=O)c1
AC50 [1]: 12.3 µM (active) | EC50 (Protein RecA): 12 µM (active)

CCCCCCCCCCOC(=O)Cn1c(COc2ccccc2)[n+](C)c2ccccc21
AC50 [1]: 3.6 µM (active) | AC50 [2]: 12.5 µM (active) | IC50 [3]: > 20 µM (inactive) | EC50 (Protein RecA): 9.4 µM (active)

CCOC(=O)c1c(-c2ccc(-c3ccccc3)cc2)csc1NC(=O)CNCCN(C)C
AC50 [2]: 5.29 µM (active) | IC50 [3]: 11.4 µM (active) | AC50 (Cryptococcus neoformans): 14.7 µM (active) | AC50 (HeLa): 8.39 µM (active)
